According to PMC4626089, “In Vitro Mutational Analysis of the β2 Adrenergic Receptor, an In Vivo Surrogate Odorant Receptor” (PLoS ONE, 2015):

How the values were obtained:
[1] = molecular target: mβ2AR::GFP fusion mouse C327R (Mus musculus, UniProt P18762, C327R); assay: cell-based; conditions: read-out: Maximum response (% of mβ2AR::GFP)
Description: (§1) Calcium-based Fluorometric Imaging Plate Reader (FLIPR) experiments were performed as described previously. Mutants analyzed in each figure come from the same FLIPR experiment. […] Relative Fluorescent Units were baseline corrected by subtracting the lowest fluorescent measure for each experiment and a curve was fitted using a 3 parameters model (Hill Slope = 1) using the GraphPad software. Half maximal effective concentrations (EC50) were then calculated and are given in nM. The maximum response, as a percent of wild type, was calculated by reporting the span for a mutant over the span for the wild type.

[2] = molecular target: mβ2AR::GFP fusion no-NxS (N6A and N15A) (Mus musculus, UniProt P18762, N15A/N6A); assay: cell-based; conditions: read-out: Maximum response (% of mβ2AR::GFP)
Description: as §1

[3] = molecular target: mβ2AR::GFP fusion mouse RDY (Mus musculus, UniProt P18762, D130R/R131D); assay: cell-based; conditions: Fig 4K
Description: as §1

[4] = molecular target: mβ2AR::GFP fusion ΔCt➔Y350 (Mus musculus, UniProt P18762); assay: cell-based; conditions: read-out: Maximum response (% of mβ2AR::GFP)
Description: as §1

mβ2AR::GFP fusion Y326A = mβ2AR::GFP fusion Y326A (Mus musculus, UniProt P18762, Y326A); assay: cell-based; conditions: read-out: Maximum response (% of mβ2AR::GFP)
Description: as §1

[5] = molecular target: mβ2AR::GFP fusion ΔCt➔E338 (Mus musculus, UniProt P18762); assay: cell-based; conditions: read-out: Maximum response (% of mβ2AR::GFP)
Description: as §1

[6] = molecular target: mβ2AR::GFP fusion ΔCt➔L339 (Mus musculus, UniProt P18762); assay: cell-based; conditions: read-out: Maximum response (% of mβ2AR::GFP)
Description: as §1

[7] = molecular target: mβ2AR::GFP fusion mouse E268A (Mus musculus, UniProt P18762, E268A); assay: cell-based; conditions: read-out: Maximum response (% of mβ2AR::GFP), span of mutant over span of wild type; Fig 4K
Description: as §1

[8] = molecular target: mβ2AR::GFP fusion NtΔ9AA/mβ2AR/M71-Ct (Mus musculus, UniProt P18762); conditions: span of mutant over span of wild type; Fig 7
Description: as §1

[9] = system: mβ2AR::GFP fusion NtΔ9AA/Y326A/ΔCt➔R328; conditions: FLIPR dose response; Fig 6E and 6F, comparable to mock
Description: as §1

[10] = molecular target: mβ2AR::GFP fusion ΔCt➔Q337 (Mus musculus, UniProt P18762); conditions: FLIPR dose response; Fig 5E
Description: as §1

[11] = system: mβ2AR::GFP fusion M71-Nt/Y326A/ΔCt➔R328; conditions: FLIPR dose response; Fig 6E and 6F, comparable to mock
Description: as §1

[12] = molecular target: mβ2AR::GFP fusion NtΔ9AA/ΔCt➔Y350/ΔC341 (Mus musculus, UniProt P18762, DEL341, form not given); conditions: span of mutant over span of wild type; Fig 3
Description: as §1

[13] = molecular target: mβ2AR::GFP fusion Y326A/ΔCt➔R328 (Mus musculus, UniProt P18762, Y326A); conditions: FLIPR dose response; Fig 6E, comparable to no plasmid-mock transfection
Description: as §1

[14] = molecular target: mβ2AR::GFP fusion ΔCt➔A335 (Mus musculus, UniProt P18762); conditions: FLIPR dose response; Fig 5E
Description: as §1

[15] = molecular target: mβ2AR::GFP fusion mβ2AR/M71-Ct (Mus musculus, UniProt P18762); conditions: span of mutant over span of wild type; Fig 7
Description: as §1

[16] = molecular target: mβ2AR::GFP fusion no-NxS/Y326A/ΔCt➔R328 (Mus musculus, UniProt P18762, N15A/N6A/Y326A); conditions: FLIPR dose response; Fig 6E and 6F, comparable to mock
Description: as §1

[17] = molecular target: mβ2AR::GFP fusion M71-Nt/mβ2AR/M71-Ct (Mus musculus, UniProt P18762); conditions: span of mutant over span of wild type; Fig 7
Description: as §1

[18] = system: rat I7 (rI7) OR, rI7(RDY); design: method as in PMID 16990513, PMID 25550517; conditions: neurons expressing rI7(RDY); cited from earlier work

| Structure (SMILES) | Emax [1] | Emax [2] | Emax ([3]; read-out: Maximum response (% of mβ2AR::GFP), span of mutant over span of wild type) | Maximum response (% of mβ2AR::GFP) ([3]; span of mutant over span of wild type) | Emax [4] | Emax (mβ2AR::GFP fusion Y326A) | Emax [5] | Emax [6] | Emax [7] | Maximum response (% of mβ2AR::GFP) [8] | induction by isoprenaline [9] | isoprenaline-mediated responses [10] | induction by isoprenaline [11] | Maximum response (% of mβ2AR::GFP) [12] | capacity to signal after isoprenaline exposure [13] | isoprenaline-mediated responses [14] | Maximum response (% of mβ2AR::GFP) [15] | induction by isoprenaline [16] | Maximum response (% of mβ2AR::GFP) [17] | Ca2+ signals in response to octanal [18] |
| --- | --- | --- | --- | --- | --- | --- | --- | --- | --- | --- | --- | --- | --- | --- | --- | --- | --- | --- | --- | --- |
| CC(C)NCC(O)c1ccc(O)c(O)c1 (centres unmarked) [Isoprenaline, isoprenaline] | 58% | 120% | 58% | ~ 60% | 70% | 89% | 19% | 27% | 51% | 34% | not induced | do not find isoprenaline-mediated responses | not induced | 77% | no capacity to signal | do not find isoprenaline-mediated responses | 47% | not induced | 32% | – |
| CCCCCCCC=O [octanal] | – | – | – | – | – | – | – | – | – | – | – | – | – | – | – | – | – | – | – | do not show Ca^2+ signals |
